From publication PMC5399447, “Neuroprotective pentapeptide CN-105 is associated with reduced sterile inflammation and improved functional outcomes in a traumatic brain injury murine model” (Scientific Reports, 2017)

Test system: 84 genes related to inflammatory and autoimmune processes
Experiment: Mouse Inflammatory Response and Autoimmunity PCR Array, whole brain
Format: in vivo
Conditions: brain 24 h
Protocol: Frozen, pulverized whole brain tissue was processed for RNA extraction from a separate cohort of treated and untreated injured animals on days 1 post-injury(CN-105, n = 4; vehicle, n = 3; Control(sham-operated), n = 3). Total RNA was extracted from frozen, pulverized whole brain tissue using RNeasy Lipid Tissue Mini Kit(Qiagen, Valencia, CA). RNA quantity and quality was assessed with the NanoDrop ND-1000 spectrophotometer(NanoDrop Technologies, Inc., Wilmington, DE) and by agarose gel electrophoresis. Only samples with a 260/280 ratio between 1.9–2.1, and a 260/230 ratio greater than 2.0, were further processed. First strand complementary DNA(cDNA) was generated from 2 μg total RNA using the RT[2] First strand kit(SABiosciences, Frederick, MD.)
Gene expression was measured using the Mouse Inflammatory Response and Autoimmunity PCR Array(SABiosciences, Frederick, MD), which profiles the expression of 84 genes related to inflammatory and autoimmune processes. RT-PCR was performed according to manufacturer’s instructions Quality of the cDNA and PCR efficiency was verified by housekeeping genes and RT-PCR controls included in the PCR Array.
Raw RT-PCR data were analyzed using the Web-Based PCR Array Data Analysis software(SABiosciences). ΔCt values and ΔΔCt - based fold-change were calculated from raw threshold cycle data, using beta-actin and glyceraldehyde 3-phosphate dehydrogenase(GAPDH) as internal standards for normalization. Fold changes were then normalized against sham-operated controls.

Substance: Ac-VSRRR-amide [CN-105]
- Il22ra2 ΔCt value, S-CN-105 (sham + CN-105 0.05 mg/kg iv): 1.1E − 04
- Il22 ΔCt value, S-CN-105 (sham + CN-105 0.05 mg/kg iv): 4.7E − 04
- Il23a ΔCt value, S-CN-105 (sham + CN-105 0.05 mg/kg iv): 8.0E − 05
- Il23r ΔCt value, S-CN-105 (sham + CN-105 0.05 mg/kg iv): 1.5E − 04
- Itgb2 ΔCt value, S-CN-105 (sham + CN-105 0.05 mg/kg iv): 1.3E − 02
- Kng1 ΔCt value, S-CN-105 (sham + CN-105 0.05 mg/kg iv): 1.4E − 05
- Lta ΔCt value, S-CN-105 (sham + CN-105 0.05 mg/kg iv): 2.6E − 04
- Ltb ΔCt value, S-CN-105 (sham + CN-105 0.05 mg/kg iv): 1.0E − 03
- Ly96 ΔCt value, S-CN-105 (sham + CN-105 0.05 mg/kg iv): 7.2E − 03
- Myd88 ΔCt value, S-CN-105 (sham + CN-105 0.05 mg/kg iv): 1.1E − 03
- Nfatc3 ΔCt value, S-CN-105 (sham + CN-105 0.05 mg/kg iv): 2.1E − 02
- Nfkb1 ΔCt value, S-CN-105 (sham + CN-105 0.05 mg/kg iv): 3.1E − 02
- Nos2 ΔCt value, S-CN-105 (sham + CN-105 0.05 mg/kg iv): 8.9E − 05
- Nr3c1 ΔCt value, S-CN-105 (sham + CN-105 0.05 mg/kg iv): 4.0E − 01
- Ripk2 ΔCt value, S-CN-105 (sham + CN-105 0.05 mg/kg iv): 1.1E − 02
- Tirap ΔCt value, S-CN-105 (sham + CN-105 0.05 mg/kg iv): 7.8E − 03
- Tlr1 ΔCt value, S-CN-105 (sham + CN-105 0.05 mg/kg iv): 1.0E − 03
- Tlr2 ΔCt value, S-CN-105 (sham + CN-105 0.05 mg/kg iv): 1.3E − 03
- Tlr3 ΔCt value, S-CN-105 (sham + CN-105 0.05 mg/kg iv): 2.3E − 02
- Tlr4 ΔCt value, S-CN-105 (sham + CN-105 0.05 mg/kg iv): 3.5E − 03
- Tlr5 ΔCt value, S-CN-105 (sham + CN-105 0.05 mg/kg iv): 6.3E − 04
- Tlr6 ΔCt value, S-CN-105 (sham + CN-105 0.05 mg/kg iv): 6.2E − 04
- Tlr7 ΔCt value, S-CN-105 (sham + CN-105 0.05 mg/kg iv): 2.6E − 03
- Tnf ΔCt value, S-CN-105 (sham + CN-105 0.05 mg/kg iv): 3.5E − 05
- Tnfsf14 ΔCt value, S-CN-105 (sham + CN-105 0.05 mg/kg iv): 1.3E − 04
- Tollip ΔCt value, S-CN-105 (sham + CN-105 0.05 mg/kg iv): 3.2E − 01
- Bcl6 fold change S-CN-105/S-v (sham CN-105 vs sham vehicle): 1.3
- C3ar1 fold change S-CN-105/S-v (sham CN-105 vs sham vehicle): 1.2
- C3 fold change S-CN-105/S-v (sham CN-105 vs sham vehicle): 1.7
- C4b fold change S-CN-105/S-v (sham CN-105 vs sham vehicle): 2.0
- Ccl2 fold change S-CN-105/S-v (sham CN-105 vs sham vehicle): 1.4
- Ccl3 fold change S-CN-105/S-v (sham CN-105 vs sham vehicle): 1.6
- Ccl4 fold change S-CN-105/S-v (sham CN-105 vs sham vehicle): 1.0
- Ccl5 fold change S-CN-105/S-v (sham CN-105 vs sham vehicle): 1.2
- Ccl7 fold change S-CN-105/S-v (sham CN-105 vs sham vehicle): 1.3
- Ccl8 fold change S-CN-105/S-v (sham CN-105 vs sham vehicle): 2.8
- Ccl11 fold change S-CN-105/S-v (sham CN-105 vs sham vehicle): 3.2
- Ccl12 fold change S-CN-105/S-v (sham CN-105 vs sham vehicle): 1.8
- Ccl17 fold change S-CN-105/S-v (sham CN-105 vs sham vehicle): 1.6
- Ccl19 fold change S-CN-105/S-v (sham CN-105 vs sham vehicle): 1.5
- Ccl20 fold change S-CN-105/S-v (sham CN-105 vs sham vehicle): 4.4
- Ccl22 fold change S-CN-105/S-v (sham CN-105 vs sham vehicle): 3.1
- Ccl24 fold change S-CN-105/S-v (sham CN-105 vs sham vehicle): 3.0
- Ccl25 fold change S-CN-105/S-v (sham CN-105 vs sham vehicle): 2.6
- Ccr1 fold change S-CN-105/S-v (sham CN-105 vs sham vehicle): −1.1
- Ccr2 fold change S-CN-105/S-v (sham CN-105 vs sham vehicle): 2.1
- Ccr3 fold change S-CN-105/S-v (sham CN-105 vs sham vehicle): 1.2
- Ccr4 fold change S-CN-105/S-v (sham CN-105 vs sham vehicle): 1.5
- Ccr7 fold change S-CN-105/S-v (sham CN-105 vs sham vehicle): 1.8
- Cd40 fold change S-CN-105/S-v (sham CN-105 vs sham vehicle): 1.5
- Cebpb fold change S-CN-105/S-v (sham CN-105 vs sham vehicle): 1.6
- Csf1 fold change S-CN-105/S-v (sham CN-105 vs sham vehicle): 1.7
- Cxcl1 fold change S-CN-105/S-v (sham CN-105 vs sham vehicle): 2.7
- Cxcl2 fold change S-CN-105/S-v (sham CN-105 vs sham vehicle): 4.2
- Cxcl3 fold change S-CN-105/S-v (sham CN-105 vs sham vehicle): 0.8
- Cxcl5 fold change S-CN-105/S-v (sham CN-105 vs sham vehicle): 1.7
- Cxcl9 fold change S-CN-105/S-v (sham CN-105 vs sham vehicle): 1.5
- Cxcl10 fold change S-CN-105/S-v (sham CN-105 vs sham vehicle): 2.1
- Cxcl11 fold change S-CN-105/S-v (sham CN-105 vs sham vehicle): 3.8
- Cxcr4 fold change S-CN-105/S-v (sham CN-105 vs sham vehicle): 1.5
- Fasl fold change S-CN-105/S-v (sham CN-105 vs sham vehicle): 0.9
- Flt3l fold change S-CN-105/S-v (sham CN-105 vs sham vehicle): 1.5
- Fos fold change S-CN-105/S-v (sham CN-105 vs sham vehicle): 1.6
- Hdac4 fold change S-CN-105/S-v (sham CN-105 vs sham vehicle): 1.5
- Ifng fold change S-CN-105/S-v (sham CN-105 vs sham vehicle): 0.8
- Il1a fold change S-CN-105/S-v (sham CN-105 vs sham vehicle): 1.4
- Il1b fold change S-CN-105/S-v (sham CN-105 vs sham vehicle): 1.8
- Il1r1 fold change S-CN-105/S-v (sham CN-105 vs sham vehicle): 2.6
- Il1rap fold change S-CN-105/S-v (sham CN-105 vs sham vehicle): 1.5
- Il6 fold change S-CN-105/S-v (sham CN-105 vs sham vehicle): −1.3
- Il6ra fold change S-CN-105/S-v (sham CN-105 vs sham vehicle): 1.5
- Il7 fold change S-CN-105/S-v (sham CN-105 vs sham vehicle): 3.1
- Il8rb fold change S-CN-105/S-v (sham CN-105 vs sham vehicle): 7.3
- Il10 fold change S-CN-105/S-v (sham CN-105 vs sham vehicle): 5.7
- Il10rb fold change S-CN-105/S-v (sham CN-105 vs sham vehicle): 2.0
- Il18 fold change S-CN-105/S-v (sham CN-105 vs sham vehicle): 2.0
- Il22 fold change S-CN-105/S-v (sham CN-105 vs sham vehicle): 10.8
- Il22ra2 fold change S-CN-105/S-v (sham CN-105 vs sham vehicle): 4.8
- Il23a fold change S-CN-105/S-v (sham CN-105 vs sham vehicle): 3.0
- Il23r fold change S-CN-105/S-v (sham CN-105 vs sham vehicle): 1.4
- Itgb2 fold change S-CN-105/S-v (sham CN-105 vs sham vehicle): 2.5
- Lta fold change S-CN-105/S-v (sham CN-105 vs sham vehicle): 2.3
- Ltb fold change S-CN-105/S-v (sham CN-105 vs sham vehicle): 2.0
- Ly96 fold change S-CN-105/S-v (sham CN-105 vs sham vehicle): 1.9
- Myd88 fold change S-CN-105/S-v (sham CN-105 vs sham vehicle): 1.5
- Nfatc3 fold change S-CN-105/S-v (sham CN-105 vs sham vehicle): 2.4
- Nfkb1 fold change S-CN-105/S-v (sham CN-105 vs sham vehicle): 1.8
- Nos2 fold change S-CN-105/S-v (sham CN-105 vs sham vehicle): 1.0
- Nr3c1 fold change S-CN-105/S-v (sham CN-105 vs sham vehicle): 2.0
- Ripk2 fold change S-CN-105/S-v (sham CN-105 vs sham vehicle): 1.5
- Tirap fold change S-CN-105/S-v (sham CN-105 vs sham vehicle): 2.1
- Tlr1 fold change S-CN-105/S-v (sham CN-105 vs sham vehicle): 2.2
- Tlr2 fold change S-CN-105/S-v (sham CN-105 vs sham vehicle): 1.4
- Tlr3 fold change S-CN-105/S-v (sham CN-105 vs sham vehicle): 1.6
- Tlr4 fold change S-CN-105/S-v (sham CN-105 vs sham vehicle): 1.1
- Tlr5 fold change S-CN-105/S-v (sham CN-105 vs sham vehicle): 0.9
- Tlr6 fold change S-CN-105/S-v (sham CN-105 vs sham vehicle): 1.3
- Tlr7 fold change S-CN-105/S-v (sham CN-105 vs sham vehicle): 1.6
- Tnf fold change S-CN-105/S-v (sham CN-105 vs sham vehicle): 1.3
- Tnfsf14 fold change S-CN-105/S-v (sham CN-105 vs sham vehicle): 5.2
- Tollip fold change S-CN-105/S-v (sham CN-105 vs sham vehicle): 1.9
- downregulation of gene expression, sham CN-105 vs sham vehicle (sham mice, 0.05 mg/kg): No downregulation of gene expression was observed
